This note sets out measurements from ChEMBL document CHEMBL1201862, “PubChem BioAssay data set” (2004).

Test systems include KM12; TK-10; SR; HOP-92; OVCAR-4; SK-MEL-5; A498; KM-20L2; OVCAR-3; RXF 393; ACHN; CAKI-1; HT-29; MDA-N; SF-268; IGROV-1; NCI-H226; MOLT-4; A549; NCI/ADR-RES.
Common to all, as to test: inhibition of tumour cell growth, NCI panel, 48 h

SMILES strings stand for the structures.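 Dose response: 5 concentrations. Exposure: 48 h. Format: 96-well plates. Endpoint: linear interpolation; highest concentration if not reached. Here, GI50 denotes the concentration required for 50% inhibition of growth.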 Calls of active or inactive are those of the source. Cut-off read from the data, not from the text of the source: active = GI50 up to about 1.1 µM and inactive = higher. A value given as a limit tells only on which side of the number the result lay.

Consider `Cc1nc2c(o1)C(=O)c1ccccc1/C2=N\c1ccccc1`, for which the GI50 was 6.07 µM (inactive) in the assay on KM12; 20.7 µM (inactive) in the assay on TK-10; 4.3 µM (inactive) with SR; 2.27 µM (inactive) with HOP-92; 2.4 µM (inactive) in the assay with OVCAR-4; 1.35 µM (inactive) in the assay with SK-MEL-5. Also, the GI50 was > 10 µM (inactive) in the assay with A498; 20.5 µM (inactive) in the assay on KM-20L2; 1.59 µM (inactive) in the assay on OVCAR-3; 1.57 µM (inactive) in the assay on RXF 393; 3.18 µM (inactive) with ACHN; 17.9 µM (inactive) in the assay with CAKI-1. Besides, the GI50 in the assay with HT-29 was 10.2 µM (inactive); in the assay on MDA-N, 0.292 µM (active); with SF-268, 4.01 µM (inactive); in the assay with IGROV-1, 7.98 µM (inactive); with NCI-H226, 13.6 µM (inactive).

Consider `O=C(c1ccccc1)C1OC12C(=O)Nc1c(Cl)cc(Cl)cc12` (stereo unspecified), for which the GI50 was > 100 µM (inactive) in the assay on KM12; > 94.4 µM (inactive) in the assay on TK-10; 11.6 µM (inactive) with SR; > 35.9 µM (inactive) in the assay with HOP-92; 10.2 µM (inactive) with MOLT-4; 8.2 µM (inactive) with OVCAR-4. The GI50 in the assay with SK-MEL-5 was > 74.3 µM (inactive); in the assay on A498, > 92 µM (inactive); in the assay with KM-20L2 it was 72.1 µM (inactive); in the assay with OVCAR-3, 60.3 µM (inactive); with RXF 393, 24.4 µM (inactive); in the assay with ACHN it was 23.8 µM (inactive). Moreover, the GI50 with CAKI-1 was 24.8 µM (inactive); in the assay with HT-29, 33.6 µM (inactive); with A549, > 64.9 µM (inactive); in the assay with SF-268, 35.2 µM (inactive); with IGROV-1 it was > 59.4 µM (inactive); in the assay with NCI-H226, 5.6 µM (inactive).

Regarding `CCOC(=O)c1[nH]c(CN(C)Cc2[nH]c(C(=O)OCC)c(C)c2C(=O)OCc2ccccc2)c(C(=O)OCc2ccccc2)c1C`, the GI50 is 7.45 µM (inactive) in the assay on KM12; 16.7 µM (inactive) with TK-10; > 100 µM (inactive) in the assay on SR; 2.42 µM (inactive) in the assay with HOP-92; > 100 µM (inactive) in the assay with MOLT-4; 6.24 µM (inactive) with OVCAR-4. In addition, the GI50 in the assay on SK-MEL-5 was 6.44 µM (inactive); in the assay with A498, 15 µM (inactive); in the assay with KM-20L2 it was 3.04 µM (inactive); in the assay with OVCAR-3 it was 10.4 µM (inactive); with RXF 393 it was 3.87 µM (inactive); in the assay with ACHN, 18.4 µM (inactive). Further, the GI50 in the assay on CAKI-1 was 2.85 µM (inactive); in the assay with HT-29, 2.77 µM (inactive); with A549, 16.6 µM (inactive); in the assay with SF-268, 10.7 µM (inactive); in the assay on IGROV-1, 27.4 µM (inactive); in the assay on NCI-H226 it was 12.7 µM (inactive).

In the case of `CC[C@@]1(O)C(=O)OCc2c1cc1n(c2=O)Cc2c-1nc1ccccc1c2Cl`, the GI50 with KM12 was 0.124 µM (active); in the assay with TK-10, 6.21 µM (inactive); in the assay with SR, < 0.01 µM (active); with HOP-92, 0.0724 µM (active); in the assay with MOLT-4, < 0.01 µM (active); with OVCAR-4, 0.56 µM (active). Also, the GI50 is < 0.01 µM (active) in the assay on NCI/ADR-RES; < 0.0141 µM (active) with SK-MEL-5; 0.0237 µM (active) with A498; 0.216 µM (active) in the assay on KM-20L2; 0.296 µM (active) in the assay on OVCAR-3; < 0.0132 µM (active) in the assay on RXF 393. Moreover, the GI50 with ACHN was < 0.01 µM (active); in the assay on CAKI-1 it was < 0.01 µM (active); with HT-29, 0.0461 µM (active); with MDA-N, 0.069 µM (active); in the assay with A549 it was < 0.01 µM (active); in the assay with SF-268, < 0.01 µM (active). The GI50 was 0.211 µM (active) in the assay with IGROV-1 and < 0.01 µM (active) in the assay with NCI-H226.

Regarding `O=C1NC(=S)NC(=O)C1=Cc1ccc[nH]1`, the GI50 in the assay with KM12 was 3.48 µM (inactive); in the assay with TK-10, 17.4 µM (inactive); in the assay with SR, 3.62 µM (inactive); with HOP-92 it was 19.6 µM (inactive); in the assay on MOLT-4 it was 16.2 µM (inactive); in the assay on OVCAR-4, 15.3 µM (inactive). For the same compound, the GI50 was 26.5 µM (inactive) in the assay on SK-MEL-5; 35.2 µM (inactive) in the assay on A498; 5.94 µM (inactive) in the assay with KM-20L2; 7.38 µM (inactive) with OVCAR-3; 2.2 µM (inactive) with RXF 393; 15 µM (inactive) with ACHN. Further, the GI50 is 11.2 µM (inactive) in the assay on CAKI-1; 4.38 µM (inactive) in the assay with HT-29; 26.7 µM (inactive) with A549; 22.6 µM (inactive) in the assay with SF-268; 19.6 µM (inactive) with IGROV-1; 14.5 µM (inactive) in the assay on NCI-H226.

In the case of `O=C1c2c(O)cccc2C(C(=O)CCCCC(=O)C2c3cccc(O)c3C(=O)c3c(O)cccc32)c2cccc(O)c21`, the GI50 is 0.607 µM (active) with KM12; 1.55 µM (inactive) with TK-10; 0.798 µM (active) in the assay on SR; 0.627 µM (active) with HOP-92; 0.979 µM (active) in the assay on MOLT-4; 0.782 µM (active) with OVCAR-4. The GI50 was 0.473 µM (active) in the assay on SK-MEL-5; 1.56 µM (inactive) in the assay on A498; 0.918 µM (active) in the assay on KM-20L2; 0.547 µM (active) with OVCAR-3; 0.729 µM (active) in the assay with ACHN; 3.92 µM (inactive) with CAKI-1. Also, the GI50 in the assay with HT-29 was 0.641 µM (active); with MDA-N, 0.879 µM (active); with A549 it was 0.483 µM (active); with SF-268, 0.69 µM (active); in the assay with NCI-H226 it was 0.918 µM (active).

Consider `C=C(C[N+](C)(C)C)N/N=C/c1oc(-c2ccc(OC)c(OC)c2)c(-c2ccc(OC)c(OC)c2)c1[N+](=O)[O-]`, for which the GI50 in the assay with KM12 is 17.1 µM (inactive); in the assay with TK-10, 22.4 µM (inactive); in the assay on SR it was 4.69 µM (inactive); in the assay with HOP-92, 19.6 µM (inactive); in the assay on MOLT-4 it was 22.4 µM (inactive); in the assay with OVCAR-4 it was 18.5 µM (inactive). In addition, the GI50 in the assay on SK-MEL-5 was 16.4 µM (inactive); with A498 it was 28.6 µM (inactive); in the assay on KM-20L2, 31.7 µM (inactive); in the assay on OVCAR-3, 24.8 µM (inactive); in the assay on RXF 393 it was 15.2 µM (inactive); in the assay with ACHN, 15.4 µM (inactive). Also, the GI50 in the assay on CAKI-1 was 32.6 µM (inactive); in the assay on HT-29, 16.9 µM (inactive); with A549, 38.5 µM (inactive); in the assay with SF-268, 17.9 µM (inactive); with IGROV-1, 18.1 µM (inactive); in the assay on NCI-H226, 27.3 µM (inactive).
